Laboratory results as given in patent publication US20100016401A1, “3-AZA-BICYCLO[3.1.0]HEXANE DERIVATIVES” (Actelion Phamaceuticals Ltd., priority 2006, published 2010).

Columns and labels:
[1] = target: T1, human orexin-1 receptor (Homo sapiens, UniProt O43613); test: Intracellular calcium measurements (FLIPR), orexin receptor antagonistic activity, OX1; type: cell-based; settings: CHO cells expressing human orexin-1 receptor, 10 nM orexin-A as agonist
T1 construct: expressed in transfected cells; host or cells: CHO (Chinese hamster ovary) cells, grown under G418 selection
T1 sequence (O43613 1-425): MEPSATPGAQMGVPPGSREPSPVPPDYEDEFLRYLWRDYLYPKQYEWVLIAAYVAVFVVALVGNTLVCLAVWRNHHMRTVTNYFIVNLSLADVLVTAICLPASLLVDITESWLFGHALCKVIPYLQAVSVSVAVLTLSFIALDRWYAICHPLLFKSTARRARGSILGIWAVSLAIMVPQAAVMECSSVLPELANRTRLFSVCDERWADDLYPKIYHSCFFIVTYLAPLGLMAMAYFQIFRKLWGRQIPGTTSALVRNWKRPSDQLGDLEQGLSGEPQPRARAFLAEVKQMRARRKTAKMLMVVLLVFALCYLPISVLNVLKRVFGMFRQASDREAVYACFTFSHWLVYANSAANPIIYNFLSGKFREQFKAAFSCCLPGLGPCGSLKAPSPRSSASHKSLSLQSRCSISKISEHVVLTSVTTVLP
Description: (§1) The orexin receptor antagonistic activity of the compounds of formula (I) is determined in accordance with the following experimental method.
(§2) Intracellular Calcium Measurements:
(§3) Chinese hamster ovary (CHO) cells expressing the human orexin-1 receptor and the human orexin-2 receptor, respectively, are grown in culture medium (Ham F-12 with L-Glutamine) containing 300 μg/ml G418, 100 U/ml penicillin, 100 μg/ml streptomycin and 10% inactivated fetal calf serum (FCS). The cells are seeded at 80,000 cells/well into 96-well black clear bottom sterile plates (Costar) which have been precoated with 1% gelatine in Hanks' Balanced Salt Solution (HBSS). All reagents are from Gibco BRL. The seeded plates are incubated overnight at 37° C. in 5% CO2.
(§4) Human orexin-A as an agonist is prepared as 1 mM stock solution in MeOH: water (1:1), diluted in HBSS containing 0.1% bovine serum albumin (BSA) and 2 mM HEPES for use in the assay at a final concentration of 10 nM.
(§5) Antagonists are prepared as 10 mM stock solution in DMSO, then diluted in 96-well plates, first in DMSO, then in HBSS containing 0.1% bovine serum albumin (BSA) and 2 mM HEPES.
(§6) On the day of the assay, 100 μl of loading medium (HBSS containing 1% FCS, 2 mM HEPES, 5 mM probenecid (Sigma) and 3 μM of the fluorescent calcium indicator fluo-3 AM (1 mM stock solution in DMSO with 10% pluronic acid) (Molecular Probes) is added to each well.
(§7) The 96-well plates are incubated for 60 min at 37° C. in 5% CO2. The loading solution is then aspirated and cells are washed 3 times with 200 μl HBSS containing 2.5 mM probenecid, 0.1% BSA, 2 mM HEPES. 100 μl of that same buffer is left in each well.
(§8) Within the Fluorescent Imaging Plate Reader (FLIPR, Molecular Devices), antagonists are added to the plate in a volume of 50 μl, incubated for 20 min and finally 100 μl of agonist is added. Fluorescence is measured for each well at 1 second intervals, and the height of each fluorescence peak is compared to the height of the fluorescence peak induced by 10 nM orexin-A with buffer in place of antagonist.

[2] = target: T2, human orexin-2 receptor (Homo sapiens, UniProt O43614); test: Intracellular calcium measurements (FLIPR), orexin receptor antagonistic activity, OX2; type: cell-based; settings: CHO cells expressing human orexin-2 receptor, 10 nM orexin-A as agonist
T2 construct: expressed in transfected cells; host or cells: CHO (Chinese hamster ovary) cells, grown under G418 selection
T2 sequence (O43614 1-444): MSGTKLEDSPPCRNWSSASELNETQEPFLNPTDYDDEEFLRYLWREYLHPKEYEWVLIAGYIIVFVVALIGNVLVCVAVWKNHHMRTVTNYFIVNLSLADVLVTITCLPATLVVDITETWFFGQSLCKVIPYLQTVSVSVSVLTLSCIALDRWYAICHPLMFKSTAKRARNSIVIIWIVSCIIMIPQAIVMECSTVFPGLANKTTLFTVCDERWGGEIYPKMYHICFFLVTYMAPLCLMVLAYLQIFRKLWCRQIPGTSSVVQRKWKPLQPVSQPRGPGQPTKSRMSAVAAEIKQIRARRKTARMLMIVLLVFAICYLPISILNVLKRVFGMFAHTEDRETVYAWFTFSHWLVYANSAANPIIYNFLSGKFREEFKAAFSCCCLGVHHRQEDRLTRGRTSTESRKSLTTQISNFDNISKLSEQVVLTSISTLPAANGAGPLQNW
Description: as §1, §2, §3, §4, §5, §6, §7, §8

| SMILES | IC50 [1] [nM] | IC50 [2] [nM] |
| --- | --- | --- |
| Cc1ccc(C(=O)N2C[C@H]3C[C@H]3[C@H]2CNC(=O)c2cccc3c2OCCO3)c(C#CC2CC2)c1 (racemic) [Example 379, 2,3-Dihydro-benzo[1,4]dioxine-5-carboxylic acid [(1R*,2S*,5S*)-3-(2-cyclopropylethynyl-4-methyl-benzoyl)-3-aza-bicyclo[3.1.0]hex-2-ylmethyl]-amide] | 373 | 61 |
| Cc1ccc(C(=O)N2C[C@H]3C[C@H]3[C@H]2CNC(=O)c2c3c(cc4c2OCC4)OCC3)c(-c2cccc(F)c2)c1 (relative stereo) [Compound 318] | 196 | 114 |
| Cc1nc2sccn2c1C(=O)NC[C@@H]1[C@@H]2C[C@@H]2CN1S(=O)(=O)c1ccccc1OC(F)(F)F (relative stereo) [Example 3, 6-methyl-imidazo[2,1-b]thiazole-5-carboxylic acid [(1R*,2S*,5S*)-3-(2-trifluoromethoxy-benzenesulfonyl)-3-aza-bicyclo[3.1.0]hex-2-ylmethyl]-amide] | 158 | 348 |
| Cc1nc(C(=O)N2C[C@H]3C[C@H]3[C@H]2CNC(=O)c2ccc(F)cc2)c(-c2cccc(F)c2)s1 (relative stereo) [Example 8, 4-fluoro-N-{[(1R*,2S*,5S*)-3-[5-(3-fluoro-phenyl)-2-methyl-thiazole-4-carbonyl]-3-aza-bicyclo[3.1.0]hex-2-ylmethyl}-benzamide] | 994 | 96 |
| CCc1ccc(-c2sc(C)nc2C(=O)N2C[C@H]3C[C@H]3[C@H]2CNC(=O)c2cccc3occc23)cc1 (relative stereo) [Example 16, benzofuran-4-carboxylic acid {(1R*,2S*,5S*)-3-[5-(4-ethyl-phenyl}2-methyl-thiazole-4-carbonyl]-3-aza-bicyclo[3.1.0]hex-2-ylmethyl}-amide] | 143 | 33 |
| Nc1nc(-c2ccccc2C(=O)N2C[C@H]3C[C@H]3[C@H]2CNC(=O)c2cccc3occc23)cs1 (relative stereo) [Example 30, benzofuran-4-carboxylic acid {(1R*,2S*,5S*)-3-[2-(2-amino-thiazol-4-yl)benzoyl]-3-aza-bicyclo[3.1.0]hex-2-ylmethyl}-amide] | 1210 | 32 |
| O=C(NC[C@@H]1[C@@H]2C[C@@H]2CN1C(=O)c1cccc2c1-c1ccccc1C2)c1cccc2occc12 (relative stereo) [Example 31, benzofuran-4-carboxylic acid [(1R*,2S*,5S*)-3-(9H-fluorene-4-carbonyl)-3-aza-bicyclo[3.1.0]hex-2-ylmethyl]-amide] | 240 | 51 |
| O=C(NC[C@@H]1[C@@H]2C[C@@H]2CN1C(=O)c1nccnc1-c1ccccc1)c1cccc2occc12 (relative stereo) [Example 32, benzofuran-4-carboxylic acid [(1R*,2S*,5S*)-3-(3-phenyl-pyrazine-2-carbonyl)-3-aza-bicyclo[3.1.0]hex-2-ylmethyl]-amide] | 2960 | 91 |
| COc1ccc(-c2ocnc2C(=O)N2C[C@H]3C[C@H]3[C@H]2CNC(=O)c2cccc3occc23)cc1 (relative stereo) [Example 33, benzofuran-4-carboxylic acid {(1R*,2S*,5S*)-3-[5-(4-methoxy-phenyl)-oxazole-4-carbonyl]-3-aza-bicyclo[3.1.0]hex-2-ylmethyl}-amide] | 2170 | 94 |
| O=C(NC[C@@H]1[C@@H]2C[C@@H]2CN1C(=O)c1ccccc1-c1ccc(Cl)cc1)c1cccc2occc12 (relative stereo) [Example 42, benzofuran-4-carboxylic acid [(1R*,2S*,5S*)-3-(4′-chloro-biphenyl-2-carbonyl)-3-aza-bicyclo[3.1.0]hex-2-ylmethyl]-amide] | 237 | 50 |
| Cc1nc(C(=O)N2C[C@H]3C[C@H]3[C@H]2CNc2cnc3cc(F)c(F)cc3n2)c(-c2ccc(F)cc2)s1 (relative stereo) [Example 60, {(1R*,2S*,5S*)-2-[(6,7-difluoro-quinoxalin-2-ylamino)-methyl]-3-aza-bicyclo[3.1.0]hex-3-yl}-[5-(4-fluoro-phenyl)-2-methyl-thiazol-4-yl]-methanone] | 596 | 76 |
| O=C(c1ccccc1-c1ccccc1)N1C[C@H]2C[C@H]2[C@H]1CNc1ncc(Br)cn1 (relative stereo) [Example 64, biphenyl-2-yl-{(1R*,2S*,5S*)-2-[(5-bromo-pyrimidin-2-ylamino)methyl]-3-aza-bicyclo[3.1.0]hex-3-yl}-methanone] | 162 | 242 |
| Cc1cccc(-c2sc(C)nc2C(=O)N2C[C@H]3C[C@H]3[C@H]2CNC(=O)c2sc(Br)nc2C)c1 (relative stereo) [Example 74, 2-bromo-4-methyl-thiazole-5-carboxylic acid [(1R*,2S*,5S*)-3-(2-methyl-5-m-tolyl-thiazole-4-carbonyl)-3-aza-bicyclo[3.1.0]hex-2-ylmethyl]-amide] | 99 | 16 |
| Cc1cccc(-c2sc(C)nc2C(=O)N2C[C@H]3C[C@H]3[C@H]2CNC(=O)c2sc(C)nc2C)c1 (relative stereo) [Example 82, 2,4-dimethyl-thiazole-5-carboxylic acid [(1R*,2S*,5S*)-3-(2-methyl-5-m-tolyl-thiazole-4-carbonyl)-3-aza-bicyclo[3.1.0]hex-2-ylmethyl]-amide] | 864 | 50 |
| Cc1cccc(-c2sc(C)nc2C(=O)N2C[C@H]3C[C@H]3[C@H]2CNC(=O)c2cnc(CC(C)C)c(C)c2)c1 (relative stereo) [Example 100, 6-isobutyl-5-methyl-N-[(1R*,2S*,5S*)-3-(2-methyl-5-m-tolyl-thiazole-4-carbonyl)-3-aza-bicyclo[3.1.0]hex-2-ylmethyl]-nicotinamide] | 1300 | 80 |
| Cc1cccc(-c2sc(C)nc2C(=O)N2C[C@H]3C[C@H]3[C@H]2CNC(=O)c2cccc3c2OC(C)(C)C3)c1 (relative stereo) [Example 108, 2,2-Dimethyl-2,3-dihydro-benzofuran-7-carboxylic acid [(1R*,2S*,5S*)-3-(2-methyl-5-m-tolyl-thiazole-4-carbonyl)-3-aza-bicyclo[3.1.0]hex-2-ylmethyl]-amide] | 131 | 101 |
| Cc1cccc(-c2sc(C)nc2C(=O)N2C[C@H]3C[C@H]3[C@H]2CNC(=O)c2cn(C)c3ccccc23)c1 (relative stereo) [Example 114, 1-Methyl-1H-indole-3-carboxylic acid [(1R*,2S*,5S*)-3-(2-methyl-5-m-tolyl-thiazole-4-carbonyl)-3-aza-bicyclo[3.1.0]hex-2-ylmethyl]-amide] | 93 | 124 |
| Cc1cccc(-c2sc(C)nc2C(=O)N2C[C@H]3C[C@H]3[C@H]2CNC(=O)c2cccc(C(F)(F)F)c2)c1 (relative stereo) [Example 125, N-[(1R*,2S*,5S*)-3-(2-Methyl-5-m-tolyl-thiazole-4-carbonyl)-3-aza-bicyclo[3.1.0]hex-2-ylmethyl]-3-trifluoromethyl-benzamide] | 98 | 102 |
